Like-named read-outs stand apart in the source and are kept apart here. Bridge positions count the residues as written; N and C are the ends. Square brackets hold non-standard residues; d marks the D form. Peptide text beside a SMILES is read from it. * marks the point of attachment. βGlcA(1-O-hexadecyl) = CCCCCCCCCCCCCCCCO[C@@H]1O[C@H](C(=O)*)[C@@H](O)[C@H](O)[C@H]1O; GlcA(1β-O-tetradecyl) = CCCCCCCCCCCCCCO[C@@H]1O[C@H](C(=O)*)[C@@H](O)[C@H](O)[C@H]1O; βDGlcA(1-OC18H37) = CCCCCCCCCCCCCCCCCCO[C@@H]1O[C@H](C(=O)*)[C@@H](O)[C@H](O)[C@H]1O; Bip = N[C@@H](Cc1ccc(-c2ccccc2)cc1)C(=O)O; αMeF = C[C@](N)(Cc1ccccc1)C(=O)O; Aib = CC(C)(N)C(=O)O
Tests used:
human glucagon receptor = target: T1, human glucagon receptor (Homo sapiens, UniProt P47871); test: DiscoveRx LeadHunter cellular assay, cAMP stimulation, glucagon receptor in CHO cells; format: cell-based
T1 construct: host or cells: CHO cells
T1 sequence (P47871 26-477): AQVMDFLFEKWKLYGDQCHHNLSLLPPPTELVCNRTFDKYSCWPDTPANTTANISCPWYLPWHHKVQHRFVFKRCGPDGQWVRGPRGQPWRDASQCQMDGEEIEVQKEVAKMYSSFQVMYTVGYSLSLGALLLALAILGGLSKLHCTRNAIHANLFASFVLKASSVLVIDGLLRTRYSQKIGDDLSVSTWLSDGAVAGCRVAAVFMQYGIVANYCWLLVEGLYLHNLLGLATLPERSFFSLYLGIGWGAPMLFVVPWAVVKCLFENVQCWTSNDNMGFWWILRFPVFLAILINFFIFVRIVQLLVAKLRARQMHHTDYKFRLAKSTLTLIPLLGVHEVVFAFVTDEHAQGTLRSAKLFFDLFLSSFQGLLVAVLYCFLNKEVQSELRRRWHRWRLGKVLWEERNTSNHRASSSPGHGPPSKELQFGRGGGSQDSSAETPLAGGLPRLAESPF

human GLP-1 receptor = target: T2, human GLP-1 receptor (Homo sapiens, UniProt P43220); test: DiscoveRx LeadHunter cellular assay, cAMP stimulation, GLP-1 receptor in CHO cells; format: cell-based; conditions: human GLP-1 receptor in CHO cells (DiscoveRx); read-out: EC50 cAMP GLP-1 R
T2 construct: host or cells: CHO cells
T2 sequence (P43220 24-463): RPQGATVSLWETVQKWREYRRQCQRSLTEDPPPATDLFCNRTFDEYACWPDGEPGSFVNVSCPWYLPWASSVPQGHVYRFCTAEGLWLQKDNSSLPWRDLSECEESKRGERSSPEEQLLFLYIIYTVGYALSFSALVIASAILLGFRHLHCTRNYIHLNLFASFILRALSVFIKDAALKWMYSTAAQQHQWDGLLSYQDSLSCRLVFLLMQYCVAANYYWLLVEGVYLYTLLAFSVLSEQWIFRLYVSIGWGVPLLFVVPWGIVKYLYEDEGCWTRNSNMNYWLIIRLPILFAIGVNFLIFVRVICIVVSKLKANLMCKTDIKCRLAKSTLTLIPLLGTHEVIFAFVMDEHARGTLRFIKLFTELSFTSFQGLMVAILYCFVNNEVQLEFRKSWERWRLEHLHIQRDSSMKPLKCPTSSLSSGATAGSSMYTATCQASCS

Row | EC50 (human glucagon receptor) | EC50 (human GLP-1 receptor) | EC50 (human glucagon receptor; read-out: EC50 cAMP Glucagon R, human glucagon receptor in CHO cells (DiscoveRx)) | SMILES
1 | 2.51 nM | 0.308 nM | – | CCCCCCCCCCCCCCCCO[C@@H]1O[C@H](C(=O)NCCCC[C@H](N)C(=O)NCCCC[C@H](NC(=O)[C@@H](NC(=O)[C@H](Cc2ccccc2)NC(=O)[C@H](CCC(=O)O)NC(=O)[C@@H]2CCCCNC(=O)CC[C@H](NC(=O)[C@H](CC(=O)O)NC(=O)[C@H](CC(C)C)NC(=O)[C@H](Cc3ccc(O)cc3)NC(=O)[C@H](CCCCN)NC(=O)[C@H](CO)NC(=O)[C@H](Cc3ccc(O)cc3)NC(=O)[C@H](CC(=O)O)NC(=O)[C@H](CO)NC(=O)[C@@H](NC(=O)[C@H](Cc3ccccc3)NC(=O)[C@@H](NC(=O)CNC(=O)[C@H](CCC(N)=O)NC(=O)C(C)(C)NC(=O)[C@@H](N)Cc3c[nH]cn3)[C@@H](C)O)[C@@H](C)O)C(=O)N[C@@H](CCC(N)=O)C(=O)N[C@@H](C)C(=O)N[C@@H](C)C(=O)N2)[C@@H](C)CC)C(=O)N[C@@H](Cc2c[nH]c3ccccc23)C(=O)N[C@@H](CC(C)C)C(=O)N[C@@H](CC(C)C)C(=O)N[C@@H](CCC(N)=O)C(=O)N[C@H](C(N)=O)[C@@H](C)O)[C@@H](O)[C@H](O)[C@H]1O [EU-A1713]
2 | 0.387 nM | 0.006 nM | – | CCCCCCCCCCCCCCO[C@@H]1O[C@H](C(=O)NCCCC[C@H](NC(=O)[C@H](C)NC(=O)[C@H](C)NC(=O)[C@H](CCC(N)=O)NC(=O)[C@H](CO)NC(=O)[C@H](CC(=O)O)NC(=O)[C@@H]2CCCCNC(=O)CC[C@H](NC(=O)[C@H](CC(=O)O)NC(=O)[C@H](CO)NC(=O)[C@@H](NC(=O)[C@H](Cc3ccccc3)NC(=O)[C@@H](NC(=O)CNC(=O)[C@H](CCC(N)=O)NC(=O)C(C)(C)NC(=O)[C@@H](N)Cc3c[nH]cn3)[C@@H](C)O)[C@@H](C)O)C(=O)N[C@@H](CO)C(=O)N[C@@H](CCCCN)C(=O)N[C@@H](Cc3ccc(O)cc3)C(=O)N2)C(=O)N[C@@H](CCC(=O)O)C(=O)N[C@@H](Cc2ccccc2)C(=O)N[C@H](C(=O)N[C@@H](CCC(N)=O)C(=O)N[C@@H](Cc2c[nH]c3ccccc23)C(=O)N[C@@H](CC(C)C)C(=O)N[C@@H](CC(C)C)C(=O)N[C@@H](CCC(N)=O)C(=O)N[C@H](C(N)=O)[C@@H](C)O)[C@@H](C)CC)[C@@H](O)[C@H](O)[C@H]1O [EU-A1734] (H-H[Aib]QGTFTSDESKYKDSQAAK(GlcA(1β-O-tetradecyl))EFIQWLLQT-NH2; lactam 10-14; N-terminus assumed)
3 | 10 nM | 1.02 nM | – | CCCCCCCCCCCCCCCCO[C@@H]1O[C@H](C(=O)NCCCC[C@H](NC(=O)[C@H](C)NC(=O)[C@H](C)NC(=O)[C@H](CCC(N)=O)NC(=O)[C@@H]2CCCCNC(=O)CC[C@H](NC(=O)[C@H](CO)NC(=O)[C@H](Cc3ccc(O)cc3)NC(=O)[C@H](CC(=O)O)NC(=O)[C@H](CO)NC(=O)[C@@H](NC(=O)[C@H](Cc3ccccc3)NC(=O)[C@@H](NC(=O)CNC(=O)[C@H](CCC(N)=O)NC(=O)C(C)(C)NC(=O)[C@@H](N)Cc3c[nH]cn3)[C@@H](C)O)[C@@H](C)O)C(=O)N[C@@H](Cc3ccc(O)cc3)C(=O)N[C@@H](CC(C)C)C(=O)N[C@@H](CC(=O)O)C(=O)N2)C(=O)N[C@@H](CCC(=O)O)C(=O)N[C@@H](Cc2ccccc2)C(=O)N[C@H](C(=O)N[C@@H](CCC(N)=O)C(=O)N[C@@H](Cc2c[nH]c3ccccc23)C(=O)N[C@@H](CC(C)C)C(=O)N[C@@H](CC(C)C)C(=O)N[C@@H](CCC(N)=O)C(=O)N[C@H](C(N)=O)[C@@H](C)O)[C@@H](C)CC)[C@@H](O)[C@H](O)[C@H]1O [EU-A1745] (H-H[Aib]QGTFTSDYSEYLDKQAAK(βGlcA(1-O-hexadecyl))EFIQWLLQT-NH2; lactam 12-16; N-terminus assumed)

Second part, the compound before the results:

Row | SMILES | EC50 (human glucagon receptor) | EC50 (human GLP-1 receptor) | EC50 (human glucagon receptor; read-out: EC50 cAMP Glucagon R, human glucagon receptor in CHO cells (DiscoveRx))
4 | CCCCCCCCCCCCCCO[C@@H]1O[C@H](C(=O)NCCCC[C@H](NC(=O)[C@@H](NC(=O)[C@H](Cc2ccccc2)NC(=O)[C@H](CCC(=O)O)NC(=O)[C@@H]2CCCCNC(=O)CC[C@H](NC(=O)[C@H](CC(=O)O)NC(=O)[C@H](CC(C)C)NC(=O)[C@H](Cc3ccc(O)cc3)NC(=O)[C@H](CCCCN)NC(=O)[C@H](CO)NC(=O)[C@H](Cc3ccc(O)cc3)NC(=O)[C@H](CC(=O)O)NC(=O)[C@H](CO)NC(=O)[C@@H](NC(=O)[C@H](Cc3ccccc3)NC(=O)[C@@H](NC(=O)CNC(=O)[C@H](CCC(N)=O)NC(=O)C(C)(C)NC(=O)[C@@H](N)Cc3c[nH]cn3)[C@@H](C)O)[C@@H](C)O)C(=O)N[C@@H](CCC(N)=O)C(=O)N[C@@H](C)C(=O)N[C@@H](C)C(=O)N2)[C@@H](C)CC)C(=O)N[C@@H](Cc2c[nH]c3ccccc23)C(=O)N[C@@H](CC(C)C)C(=O)N[C@@H](CC(C)C)C(=O)N[C@@H](CCC(N)=O)C(=O)N[C@H](C(=O)NCCOCCOCCOCCOCCOCCOCCOCCOCCC(=O)O)[C@@H](C)O)[C@@H](O)[C@H](O)[C@H]1O [EU-A1646] | 0.332 nM | 0.029 nM | –
5 | CCCCCCCCCCCCCCCCO[C@H]1O[C@H](CO[C@H]2O[C@H](C(=O)NCCCC[C@H](NC(=O)[C@@H](NC(=O)[C@H](Cc3ccccc3)NC(=O)[C@H](CCC(=O)O)NC(=O)[C@@H]3CCCCNC(=O)CC[C@H](NC(=O)[C@H](CC(=O)O)NC(=O)[C@H](CC(C)C)NC(=O)[C@H](Cc4ccc(O)cc4)NC(=O)[C@H](CCCCN)NC(=O)[C@H](CO)NC(=O)[C@H](Cc4ccc(O)cc4)NC(=O)[C@H](CC(=O)O)NC(=O)[C@H](CO)NC(=O)[C@@H](NC(=O)[C@H](Cc4ccccc4)NC(=O)[C@@H](NC(=O)CNC(=O)[C@H](CCC(N)=O)NC(=O)C(C)(C)NC(=O)[C@@H](N)Cc4c[nH]cn4)[C@@H](C)O)[C@@H](C)O)C(=O)N[C@@H](CCC(N)=O)C(=O)N[C@@H](C)C(=O)N[C@@H](C)C(=O)N3)[C@@H](C)CC)C(=O)N[C@@H](Cc3c[nH]c4ccccc34)C(=O)N[C@@H](CC(C)C)C(=O)N[C@@H](CC(C)C)C(=O)N[C@@H](CCC(N)=O)C(=O)N[C@H](C(N)=O)[C@@H](C)O)[C@H](O)[C@H](O)[C@H]2O)[C@@H](O)[C@H](O)[C@H]1O [EU-A1173] | 0.463 nM | 0.021 nM | –
6 | CCCCCCCCCCCCO[C@@H]1O[C@H](CO[C@H]2O[C@H](C(=O)NCCCC[C@@H]3NC(=O)[C@@H](NC(=O)[C@H](CC(=O)O)NC(=O)[C@H](CC(C)C)NC(=O)[C@H](Cc4ccc(O)cc4)NC(=O)[C@H](CCCCN)NC(=O)[C@H](CO)NC(=O)[C@H](Cc4ccc(O)cc4)NC(=O)[C@H](CC(=O)O)NC(=O)[C@H](CO)NC(=O)[C@@H](NC(=O)[C@H](Cc4ccccc4)NC(=O)[C@@H](NC(=O)CNC(=O)[C@H](CCC(N)=O)NC(=O)C(C)(C)NC(=O)[C@@H](N)Cc4c[nH]cn4)[C@@H](C)O)[C@@H](C)O)CCC(=O)NCCCC[C@@H](C(=O)N[C@@H](CCC(=O)O)C(=O)N[C@@H](Cc4ccccc4)C(=O)N[C@H](C(=O)N[C@@H](CCC(N)=O)C(=O)N[C@@H](Cc4c[nH]c5ccccc45)C(=O)N[C@@H](CC(C)C)C(=O)N[C@@H](CC(C)C)C(=O)N[C@@H](CCC(N)=O)C(=O)N[C@H](C(=O)O)[C@@H](C)O)[C@@H](C)CC)NC(=O)[C@H](C)NC(=O)[C@H](C)NC3=O)[C@H](O)[C@H](O)[C@H]2O)[C@@H](O)[C@H](O)[C@H]1O [EU-A1590] | 0.343 nM | 0.094 nM | –
7 | CCCCCCCCCCCCCCCCCCO[C@@H]1O[C@H](C(=O)NCCCC[C@H](NC(=O)[C@H](Cc2ccc(-c3ccccc3)cc2)NC(=O)[C@H](CC(=O)O)NC(=O)[C@H](CO)NC(=O)[C@@H](NC(=O)[C@](C)(Cc2ccccc2)NC(=O)[C@@H](NC(=O)CNC(=O)[C@H](CCC(N)=O)NC(=O)C(C)(C)NC(=O)[C@@H](N)Cc2c[nH]cn2)[C@@H](C)O)[C@@H](C)O)C(N)=O)[C@@H](O)[C@H](O)[C@H]1O [EU-A757] (H-H[Aib]QGT[αMeF]TSD[Bip]K(βDGlcA(1-OC18H37))-NH2; N-terminus assumed) | – | – | > 1000 nM
8 | CCCCCCCCCCCCO[C@@H]1O[C@H](C(=O)O)[C@@H](O[C@H]2O[C@H](C(=O)NCCCC[C@H](NC(=O)[C@@H](NC(=O)[C@H](Cc3ccccc3)NC(=O)[C@H](CCC(=O)O)NC(=O)[C@@H]3CCCCNC(=O)CC[C@H](NC(=O)[C@H](CC(=O)O)NC(=O)[C@H](CC(C)C)NC(=O)[C@H](Cc4ccc(O)cc4)NC(=O)[C@H](CCCCN)NC(=O)[C@H](CO)NC(=O)[C@H](Cc4ccc(O)cc4)NC(=O)[C@H](CC(=O)O)NC(=O)[C@H](CO)NC(=O)[C@@H](NC(=O)[C@H](Cc4ccccc4)NC(=O)[C@@H](NC(=O)CNC(=O)[C@H](CCC(N)=O)NC(=O)C(C)(C)NC(=O)[C@@H](N)Cc4c[nH]cn4)[C@@H](C)O)[C@@H](C)O)C(=O)N[C@@H](CCC(N)=O)C(=O)N[C@@H](C)C(=O)N[C@@H](C)C(=O)N3)[C@@H](C)CC)C(=O)N[C@@H](Cc3c[nH]c4ccccc34)C(=O)N[C@@H](CC(C)C)C(=O)N[C@@H](CC(C)C)C(=O)N[C@@H](CCC(N)=O)C(=O)N[C@H](C(N)=O)[C@@H](C)O)[C@@H](O)[C@H](O)[C@H]2O)[C@H](O)[C@H]1O [EU-A999] | – | 0.05 nM | –
9 | CCCCCCCCCCCCCCCCCCO[C@@H]1O[C@H](C(=O)NCCCC[C@H](NC(=O)[C@@H](NC(=O)[C@H](Cc2ccccc2)NC(=O)[C@H](CCC(=O)O)NC(=O)[C@@H]2CCCCNC(=O)CC[C@H](NC(=O)[C@H](CC(=O)O)NC(=O)[C@H](CC(C)C)NC(=O)[C@H](Cc3ccc(O)cc3)NC(=O)[C@H](CCCCN)NC(=O)[C@H](CO)NC(=O)[C@H](Cc3ccc(O)cc3)NC(=O)[C@H](CC(=O)O)NC(=O)[C@H](CO)NC(=O)[C@@H](NC(=O)[C@H](Cc3ccccc3)NC(=O)[C@@H](NC(=O)CNC(=O)[C@H](CCC(N)=O)NC(=O)C(C)(C)NC(=O)[C@@H](N)Cc3c[nH]cn3)[C@@H](C)O)[C@@H](C)O)C(=O)N[C@@H](CCC(N)=O)C(=O)N[C@@H](C)C(=O)N[C@@H](C)C(=O)N2)[C@@H](C)CC)C(=O)N[C@@H](Cc2c[nH]c3ccccc23)C(=O)N[C@@H](CC(C)C)C(=O)N[C@@H](CC(C)C)C(=O)N[C@@H](CCC(N)=O)C(=O)N[C@H](C(N)=O)[C@@H](C)O)[C@@H](O)[C@H](O)[C@H]1O [EU-A996] | – | 0.05 nM | –
